Data published in the supplement of paper PMC10307832.

Experiments:
Assay in all cases: relative viability (nuclei count vs DMSO), 5 days (fraction); higher = more cells survive
NCI-H1792 = tested on: NCI-H1792
Procedure, shortened: (§1)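 Relative viability divides the nuclei count in treated wells by that in vehicle wells. Lung cancer cell lines were seeded in 1536-well plates, dosed by pin tool the next day, and fixed and stained after 5 days in one step with final 0.05% Triton X-100, 1% formaldehyde and 1 ug/ml Hoechst. Dosing was a single drug or a fixed anchor-drug dose plus five library-drug doses (not always all listed) in √10 steps, and values are medians of duplicate plates imaged at 4×.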

NCI-H1755 = tested on: NCI-H1755
Procedure, shortened: as §1

NCI-H441 = tested on: NCI-H441
Procedure, shortened: as §1

LCLC-97TM1 = tested on: LCLC-97TM1
Procedure, shortened: as §1

NCI-H2405 = tested on: NCI-H2405
Procedure, shortened: as §1

LK-2 = tested on: LK-2
Procedure, shortened: as §1

HCC-78 = tested on: HCC-78
Procedure, shortened: as §1

NCI-H520 = tested on: NCI-H520
Procedure, shortened: as §1

NCI-H1355 = tested on: NCI-H1355
Procedure, shortened: as §1

NCI-H2228 = tested on: NCI-H2228
Procedure, shortened: as §1

HCC-827 = tested on: HCC-827
Procedure, shortened: as §1

NCI-H2009 = tested on: NCI-H2009
Procedure, shortened: as §1

ChaGo-K-1 = tested on: ChaGo-K-1
Procedure, shortened: as §1

NCI-H647 = tested on: NCI-H647
Procedure, shortened: as §1

NCI-H2085 = tested on: NCI-H2085
Procedure, shortened: as §1

LOU-NH91 = tested on: LOU-NH91
Procedure, shortened: as §1

PC-3 [JPC-3] = tested on: PC-3 [JPC-3]
Procedure, shortened: as §1

NCI-H1395 = tested on: NCI-H1395
Procedure, shortened: as §1

SK-MES-1 = tested on: SK-MES-1
Procedure, shortened: as §1

NCI-H1993 = tested on: NCI-H1993
Procedure, shortened: as §1

Which results are given for `C=C1C(=O)O[C@@H](CCCCCCCC)[C@@H]1C(=O)O` [C-75] + CC1(C)CCC(c2ccc(Cl)cc2)=C(CN2CCN(c3ccc(C(=O)NS(=O)(=O)c4ccc(N[C@H](CCN5CCOCC5)CSc5ccccc5)c(S(=O)(=O)C(F)(F)F)c4)cc3)CC2)C1 [Navitoclax] (partner 0.5 µM)?
relative viability (NCI-H1792; first compound 0.08 µM): 0.595; relative viability (NCI-H1792; first compound 0.253 µM): 0.575; relative viability (NCI-H1792; first compound 0.8 µM): 0.46; relative viability (NCI-H1792; first compound 2.53 µM): 0.303; relative viability (NCI-H1792; first compound 8 µM): 0.59; relative viability (NCI-H1755; first compound 0.08 µM): 0.945; relative viability (NCI-H1755; first compound 0.253 µM): 0.935; relative viability (NCI-H1755; first compound 0.8 µM): 1.02; relative viability (NCI-H1755; first compound 2.53 µM): 0.711; relative viability (NCI-H1755; first compound 8 µM): 0.957; relative viability (NCI-H441; first compound 0.08 µM): 0.566; relative viability (NCI-H441; first compound 0.253 µM): 0.618; relative viability (NCI-H441; first compound 0.8 µM): 0.599; relative viability (NCI-H441; first compound 2.53 µM): 0.401; relative viability (NCI-H441; first compound 8 µM): 0.488; relative viability (LCLC-97TM1; first compound 0.08 µM): 0.36; relative viability (LCLC-97TM1; first compound 0.253 µM): 0.697; relative viability (LCLC-97TM1; first compound 0.8 µM): 0.357; relative viability (LCLC-97TM1; first compound 2.53 µM): 0.304; relative viability (LCLC-97TM1; first compound 8 µM): 0.292; relative viability (NCI-H2405; first compound 0.08 µM): 0.93; relative viability (NCI-H2405; first compound 0.253 µM): 0.633; relative viability (NCI-H2405; first compound 0.8 µM): 0.863; relative viability (NCI-H2405; first compound 2.53 µM): 0.83; relative viability (NCI-H2405; first compound 8 µM): 0.802; relative viability (LK-2; first compound 0.08 µM): 0.819; relative viability (LK-2; first compound 0.253 µM): 0.883; relative viability (LK-2; first compound 0.8 µM): 1.02; relative viability (LK-2; first compound 2.53 µM): 0.769; relative viability (LK-2; first compound 8 µM): 0.648; relative viability (HCC-78; first compound 0.08 µM): 0.791; relative viability (HCC-78; first compound 0.253 µM): 0.834; relative viability (HCC-78; first compound 0.8 µM): 0.75; relative viability (HCC-78; first compound 2.53 µM): 0.708; relative viability (HCC-78; first compound 8 µM): 0.864; relative viability (NCI-H520; first compound 0.08 µM): 1.13; relative viability (NCI-H520; first compound 0.253 µM): 1.24; relative viability (NCI-H520; first compound 0.8 µM): 1; relative viability (NCI-H520; first compound 2.53 µM): 0.837; relative viability (NCI-H520; first compound 8 µM): 0.82; relative viability (NCI-H1355; first compound 0.08 µM): 0.951; relative viability (NCI-H1355; first compound 0.253 µM): 0.894; relative viability (NCI-H1355; first compound 0.8 µM): 0.867; relative viability (NCI-H1355; first compound 2.53 µM): 0.952; relative viability (NCI-H1355; first compound 8 µM): 0.956; relative viability (NCI-H2228; first compound 0.08 µM): 1.04; relative viability (NCI-H2228; first compound 0.253 µM): 1.21; relative viability (NCI-H2228; first compound 0.8 µM): 0.707; relative viability (NCI-H2228; first compound 2.53 µM): 0.973; relative viability (NCI-H2228; first compound 8 µM): 0.75; relative viability (HCC-827; first compound 0.08 µM): 1.02; relative viability (HCC-827; first compound 0.253 µM): 0.884; relative viability (HCC-827; first compound 0.8 µM): 0.952; relative viability (HCC-827; first compound 2.53 µM): 0.985; relative viability (HCC-827; first compound 8 µM): 1.04; relative viability (NCI-H2009; first compound 0.08 µM): 1.16; relative viability (NCI-H2009; first compound 0.253 µM): 1.08; relative viability (NCI-H2009; first compound 0.8 µM): 1.1; relative viability (NCI-H2009; first compound 2.53 µM): 0.971; relative viability (NCI-H2009; first compound 8 µM): 0.946; relative viability (ChaGo-K-1; first compound 0.08 µM): 0.971; relative viability (ChaGo-K-1; first compound 0.253 µM): 0.953; relative viability (ChaGo-K-1; first compound 0.8 µM): 0.833; relative viability (ChaGo-K-1; first compound 2.53 µM): 0.747; relative viability (ChaGo-K-1; first compound 8 µM): 0.956; relative viability (NCI-H647; first compound 0.08 µM): 1.12; relative viability (NCI-H647; first compound 0.253 µM): 1.05; relative viability (NCI-H647; first compound 2.53 µM): 0.875; relative viability (NCI-H647; first compound 8 µM): 0.857; relative viability (NCI-H2085; first compound 0.08 µM): 1.15; relative viability (NCI-H2085; first compound 0.253 µM): 1.2; relative viability (NCI-H2085; first compound 0.8 µM): 1.07; relative viability (NCI-H2085; first compound 2.53 µM): 1.11; relative viability (NCI-H2085; first compound 8 µM): 1.08; relative viability (LOU-NH91; first compound 0.08 µM): 0.756; relative viability (LOU-NH91; first compound 0.253 µM): 0.679; relative viability (LOU-NH91; first compound 0.8 µM): 0.643; relative viability (LOU-NH91; first compound 2.53 µM): 0.55; relative viability (LOU-NH91; first compound 8 µM): 0.776; relative viability (PC-3 [JPC-3]; first compound 0.08 µM): 0.853; relative viability (PC-3 [JPC-3]; first compound 0.253 µM): 0.841; relative viability (PC-3 [JPC-3]; first compound 0.8 µM): 0.841; relative viability (PC-3 [JPC-3]; first compound 2.53 µM): 0.826; relative viability (PC-3 [JPC-3]; first compound 8 µM): 0.874; relative viability (NCI-H1395; first compound 0.08 µM): 1.13; relative viability (NCI-H1395; first compound 0.253 µM): 1.24; relative viability (NCI-H1395; first compound 0.8 µM): 0.989; relative viability (NCI-H1395; first compound 2.53 µM): 0.813; relative viability (NCI-H1395; first compound 8 µM): 1.26; relative viability (SK-MES-1; first compound 0.08 µM): 1.31; relative viability (SK-MES-1; first compound 0.253 µM): 1.23; relative viability (SK-MES-1; first compound 0.8 µM): 1.16; relative viability (SK-MES-1; first compound 2.53 µM): 1.21; relative viability (SK-MES-1; first compound 8 µM): 1.17; relative viability (NCI-H1993; first compound 0.08 µM): 1.03; relative viability (NCI-H1993; first compound 0.253 µM): 0.944; relative viability (NCI-H1993; first compound 0.8 µM): 0.995; relative viability (NCI-H1993; first compound 2.53 µM): 0.938; relative viability (NCI-H1993; first compound 8 µM): 1.11
